US11066386B2, “CGRP receptor antagonists” (Eli Lilly and Company, priority 2017, dated 2021)
Read-outs that look alike come from different tables or passages of the source.

How the values were obtained:
[1] = target: T1, hCGRP (human calcitonin gene-related peptide) receptor (Homo sapiens, UniProt O60894+Q16602); assay: Inhibition of cAMP production by CGRP receptor antagonists (HTRF) in SK-N-MC cells; format: cell-based; conditions: human CGRP 0.8 nM as agonist, mean ±SEM, n=16, read-out: Kb measured at human CGRP
T1 construct: Cultured SK-N-MC neuroblastoma cells that endogenously express the hCGRP receptor (ATCC); host or cells: SK-N-MC neuroblastoma cells
T1 sequence (Q16602 23-461): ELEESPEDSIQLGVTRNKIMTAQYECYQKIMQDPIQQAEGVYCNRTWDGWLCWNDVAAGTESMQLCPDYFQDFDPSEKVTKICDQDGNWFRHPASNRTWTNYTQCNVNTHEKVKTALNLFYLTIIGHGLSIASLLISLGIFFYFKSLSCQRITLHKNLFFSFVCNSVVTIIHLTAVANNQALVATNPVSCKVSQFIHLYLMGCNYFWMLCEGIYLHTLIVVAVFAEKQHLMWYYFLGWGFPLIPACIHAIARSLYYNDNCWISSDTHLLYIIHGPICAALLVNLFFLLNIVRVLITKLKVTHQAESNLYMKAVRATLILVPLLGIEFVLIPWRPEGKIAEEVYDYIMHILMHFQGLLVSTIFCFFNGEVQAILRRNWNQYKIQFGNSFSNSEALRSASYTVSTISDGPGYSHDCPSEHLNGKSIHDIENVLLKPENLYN
T1 sequence (O60894 27-148): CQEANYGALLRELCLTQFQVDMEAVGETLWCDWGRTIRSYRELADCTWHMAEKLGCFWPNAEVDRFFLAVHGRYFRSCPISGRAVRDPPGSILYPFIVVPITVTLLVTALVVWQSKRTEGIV
Excerpt: Inhibition of cAMP Production by CGRP Receptor Antagonists
The hCGRP (human calcitonin gene-related peptide) receptor is functionally coupled to the Gas proteins. Stimulation of hCGRP results in an increased synthesis of intracellular cAMP and can be blocked by the addition of receptor antagonists. Receptor activity is thus a reflection of the amount of cAMP present within cells which can be detected using standard in vitro technology. […]
Data Analysis: The amount of intracellular cAMP is quantitated using HTRF technology (Cisbio) as per vendor instructions. […] The HTRF signal is immediately detected using an ENVISION® plate reader (Perkin-Elmer) to calculate the ratio of fluorescence at […]. […] Relative EC50 values are calculated from the top-bottom range of the concentration response curve using a four-parameter logistic curve fitting program (ACTIVITYBASE® v5.3.1.22 or GENEDATA SCREENER® v12.0.4), and Kb values are estimated as agonist-corrected IC50 values using the equation: Kb=(IC50)[1+([Agonist]/EC50)]. […]

[2] = target: T2, ABCB1, Human P-Glycoprotein (Pgp) (Homo sapiens, UniProt P08183); assay: In vitro determination of efflux by Pgp, bi-directional transport across MDCKII cells; format: in vitro ADME; conditions: MDCKII cells expressing human ABCB1, 5 μM substrate, 60 min
T2 construct: host or cells: MDCKII cells
T2 sequence (P08183 whole entry): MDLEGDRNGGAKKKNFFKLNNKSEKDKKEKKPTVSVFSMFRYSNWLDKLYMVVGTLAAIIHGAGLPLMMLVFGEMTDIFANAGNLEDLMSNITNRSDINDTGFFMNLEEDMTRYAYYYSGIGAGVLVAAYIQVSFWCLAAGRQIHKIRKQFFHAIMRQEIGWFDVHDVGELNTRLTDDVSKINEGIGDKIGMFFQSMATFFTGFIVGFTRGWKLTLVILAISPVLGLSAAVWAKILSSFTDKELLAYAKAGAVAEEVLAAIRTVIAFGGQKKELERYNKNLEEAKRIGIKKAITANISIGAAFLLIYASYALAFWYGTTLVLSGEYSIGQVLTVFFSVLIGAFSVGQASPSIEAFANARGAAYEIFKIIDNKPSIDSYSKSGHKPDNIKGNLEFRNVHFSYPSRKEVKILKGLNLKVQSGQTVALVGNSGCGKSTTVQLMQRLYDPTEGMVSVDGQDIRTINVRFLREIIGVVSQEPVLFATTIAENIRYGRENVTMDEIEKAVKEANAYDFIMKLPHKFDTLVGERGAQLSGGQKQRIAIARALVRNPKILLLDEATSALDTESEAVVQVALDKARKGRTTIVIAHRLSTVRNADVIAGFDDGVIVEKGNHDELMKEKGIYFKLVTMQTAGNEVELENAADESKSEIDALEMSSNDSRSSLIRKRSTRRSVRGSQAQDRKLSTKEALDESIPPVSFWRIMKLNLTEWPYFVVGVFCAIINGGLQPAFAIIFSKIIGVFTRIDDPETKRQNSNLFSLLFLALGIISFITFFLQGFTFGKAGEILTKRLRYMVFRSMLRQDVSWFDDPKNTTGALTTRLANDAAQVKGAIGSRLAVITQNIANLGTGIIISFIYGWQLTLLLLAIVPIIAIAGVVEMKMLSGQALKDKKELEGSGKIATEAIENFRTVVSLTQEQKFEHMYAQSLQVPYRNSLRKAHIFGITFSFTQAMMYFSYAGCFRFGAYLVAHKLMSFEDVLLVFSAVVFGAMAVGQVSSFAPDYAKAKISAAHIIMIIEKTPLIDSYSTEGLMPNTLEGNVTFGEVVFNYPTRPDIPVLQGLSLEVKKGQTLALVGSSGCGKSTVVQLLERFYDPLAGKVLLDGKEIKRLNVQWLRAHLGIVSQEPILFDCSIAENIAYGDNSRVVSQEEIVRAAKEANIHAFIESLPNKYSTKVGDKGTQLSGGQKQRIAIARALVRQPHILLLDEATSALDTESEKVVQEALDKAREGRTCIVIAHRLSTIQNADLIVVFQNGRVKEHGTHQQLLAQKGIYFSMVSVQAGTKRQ
Method: In Vitro Determination of Efflux by ABCB1, Human P-Glycoprotein (Pgp)
Cell Culture: MDCKII cells stably expressing human wild-type ABCB1 (Pgp) are obtained from the Netherlands Cancer Institute (Amsterdam, The Netherlands). MDCK cells are maintained as described previously (Desai et al., Mol Pharm 10:1249-1261, 2013).
Bi-directional transport across MDCK cells: The assay is essentially conducted as described previously (Desai et al., Mol Pharm 10:1249-1261, 2013). Transport is measured in both directions across uninhibited and inhibited cell monolayers using a substrate concentration of 5 μM diluted from a 10 mM DMSO stock solution (final DMSO concentration of 0.05%) and a single 60-min time interval. […] The apparent permeability coefficients (Papp) are estimated as the slope of the mass transported per 60 min relative to the total recovered mass. The basal-to-apical (B-A)/apical-to-basal (A-B) Papp ratios are calculated in the absence or presence of inhibitor in each cell line for net efflux ratio (NER).

[3] = Rat plasma and brain homogenate protein binding by equilibrium dialysis; format: in vitro ADME
Method: Determination of plasma and brain protein binding: Rat plasma and brain homogenate protein in vitro binding is determined using equilibrium dialysis, as described elsewhere [Zamek-Gliszczynski et al., J Pharm Sci, 101:1932-1940, 2012]. The results are reported as fraction unbound in plasma (fu,plasma) and brain (fu,brain), which are then utilized to calculate Kp,uu,brain, as described in Table 2. Rat fu,plasma and fu,brain of the compound of Example 1 are determined to be 0.277 and 0.126, respectively.

[4] = In vivo determination of unbound brain-to-plasma partition coefficient (Kp,uu,brain) in rats; conditions: 10 mg/kg oral; for concentration at 0.5 h / concentration at 2 h: male, Sprague-Dawley, oral, 10 mg/kg
Method: In Vivo Determination of Unbound Brain-to-Plasma Partition Coefficient (Kp,uu,brain) in Rats
Unbound brain-to-plasma partition coefficient (Kp,uu,brain) is one of the key pharmacokinetic parameter for evaluating a compound's ability to cross the blood-brain barrier (BBB) (Hammarlund-Udenaes, M.; Friden, M.; Syvanen, S.; Gupta, A. On the Rate and Extent of Drug Delivery to the Brain. Pharm. Res. 2008, 25 (8), 1737-1750).
Study populations: Animal studies are performed under protocols approved by the Covance Institutional Animal Care and Use Committee. Male Sprague-Dawley rats weighing 250-350 g are obtained from Harlan Sprague Dawley Inc. (Indianapolis, Ind.). Animals have access to food and water ad libitum before and during the study.
Dose administration: Animals each receive 10 mg/kg of the CGRP receptor antagonist compound of Example 1, administered orally in 10 ml/kg of hydroxyethylcellulose 1% w/v/polysorbate 80 0.25% v/v/Antifoam 1510-US 0.05% v/v/in purified water (probe sonicated).
Pharmacokinetic sampling: Three animals per time point are used. The blood (by cardiac puncture) and brain samples are collected at 0.5 and 2 h post dose. The blood samples are treated with K3-EDTA anticoagulant, and plasma is obtained by centrifugation at 1600 g for 10 minutes. The brain samples are weighed and homogenized, without perfusion. All samples are stored at −70° C. until analysis by LC-MS/MS to determine the concentration of the compound of Example 1 in plasma and brain at each time point.
Kp,uu,brain is calculated for each time point from the expression below where individual components are derived from a combination of in vitro and in vivo measurements carried out as described above:
[formula] where Ctotal,brain, Cu,brain, Ctotal,plasma and Cu,plasma are total and unbound brain and plasma concentrations, and fu,brain and fu,plasma are fractions unbound in brain and plasma, respectively.

## Cc1cc(OCCc2ccc([C@@H](C)[C@]3(C)CC(=O)NC3=O)cc2)cc(C)n1 [Example 1, (3S)-3-[(1R)-1-[4-[2-[(2,6-dimethyl-4-pyridyl)oxy]ethyl]phenyl]ethyl]-3-methyl-pyrrolidine-2,5-dione]
[1]
  Kb: 0.31 ± 0.21 nM
[2]
  net efflux ratio (NER) for efflux by Pgp: 4.1
[3]; rat brain homogenate
  fraction unbound in brain (fu,brain): 0.126
[3]; rat plasma, read-out: fraction unbound in plasma (fu,plasma)
  fraction unbound: 0.277
[4]; male Sprague-Dawley rats, 0.5 hr, using rat fu,brain 0.126, mean +/- SD
  Unbound brain conc. (Cu,brain): 0.046 ± 0.009 µM
[4]; male Sprague-Dawley rats, 2.0 hr, using rat fu,brain 0.126, mean +/- SD
  Unbound brain conc. (Cu,brain): 0.051 ± 0.01 µM
[4]; rat, brain, 0.5 hr, mean +/- SD, read-out: Total brain conc. (Ctotal,brain)
  concentration at 0.5 h: 0.365 ± 0.067 µM
[4]; rat, brain, 0.5 hr, using rat fu,brain 0.126, mean +/- SD, read-out: Unbound brain conc. (Cu,brain)
  concentration at 0.5 h: 0.046 ± 0.009 µM
[4]; rat, brain, 2.0 hr, mean +/- SD, read-out: Total brain conc. (Ctotal,brain)
  concentration at 2 h: 0.405 ± 0.083 µM
[4]; rat, brain, 2.0 hr, using rat fu,brain 0.126, mean +/- SD, read-out: Unbound brain conc. (Cu,brain)
  concentration at 2 h: 0.051 ± 0.01 µM
[4]; rat, plasma, 0.5 hr, mean +/- SD, read-out: Total plasma conc. (Ctotal,plasma)
  concentration at 0.5 h: 0.497 ± 0.069 µM
[4]; rat, plasma, 0.5 hr, using rat fu,plasma 0.277, mean +/- SD, read-out: Unbound plasma conc. (Cu,plasma)
  concentration at 0.5 h: 0.138 ± 0.019 µM
[4]; rat, plasma, 2.0 hr, mean +/- SD, read-out: Total plasma conc. (Ctotal,plasma)
  concentration at 2 h: 0.531 ± 0.129 µM
[4]; rat, plasma, 2.0 hr, using rat fu,plasma 0.277, mean +/- SD, read-out: Unbound plasma conc. (Cu,plasma)
  concentration at 2 h: 0.147 ± 0.036 µM
[4]; rat, brain/plasma, male Sprague-Dawley rats, 0.5 hr, mean +/- SD
  Kp uu at 0.5 h: 0.34 ± 0.05
[4]; rat, brain/plasma, male Sprague-Dawley rats, 2.0 hr, mean +/- SD
  Kp uu at 2 h: 0.35 ± 0.01
